Patent publication US9630935B2, “Compositions for the treatment of hypertension and/or fibrosis” (Vectus Biosystems Limited, priority 2013, dated 2017)
Each block holds one molecule with its values, some of them ahead of it.

Key:
[1] = system: spontaneous hypertensive rats (SHR); assay: Oral study in SHR on 2.2% salt diet: blood pressure by tail cuff plethysmography; format: in vivo, rat; settings: 4 weeks treatment, 100 or 500 pmol/kg/min orally in drinking solution, compared to controls (FIG. 13)
Source text: (§1) Fourteen week old SHR (on a 2.2% salt diet; Glen Forrest Stockfeeders) were randomly assigned to zero time control, test compound treatment (100 or 500 pmol/kg/min) in the drinking solution or control drinking solution (5% ethanol in deionised distilled water (n=5 each group). The rats assigned to zero time control group were anaesthetised and had their heart and kidneys harvested while rats assigned to control and test compound treatment were weighed twice weekly and had their drinking solution intake monitored to allow adjustment of the test compound concentration in the drinking solution to maintain a constant dose over the 4-week study period. Blood pressure was measured twice weekly by tail cuff plethysmography (PowerLab, ADInstruments, Castle Hill, NSW, Australia).

[2] = system: spontaneous hypertensive rats (SHR); assay: Oral study in SHR on 2.2% salt diet: myocardial fibrosis, histomorphometry on Masson's trichrome stained sections; format: in vivo, rat; settings: for Fibrosis in the heart: 18 week old SHR on 2.2% salt diet, 4 weeks treatment, 500 pmol/kg/min orally, compared to controls (FIG. 16); for Histological sections from the hearts (micrographs): rats on 2.2% salt diet treated four weeks with 500 pmol/kg/min, control has extensive fibrosis (FIG. 20)
Source text: as §1
(§2) After 4 weeks rats were anaesthetised, and their hearts and kidneys harvested for quantitation of fibrosis.
(§3) To quantitate tissue fibrosis tissue slices ≦3 mm thick were fixed in 10% buffered formalin for 24 hours, processed and embedded in paraffin. Three micron transverse sections were stained using Masson's trichrome stain. A minimum of […] random fields at magnification ×20 from transverse sections (5 at each of 2 levels) were digitized and the degree of fibrosis determined as a percent of field area of each digitized image using Image-Pro Plus V.7 (Media Cybernetics, Bethesda, Md., USA) then averaged to determine the level of fibrosis for tissue for each rat.

[3] = system: spontaneous hypertensive rats (SHR); assay: Oral study in SHR on 2.2% salt diet: kidney interstitial fibrosis, histomorphometry on Masson's trichrome stained sections; format: in vivo, rat; settings: for Fibrosis in the kidney: 18 week old SHR on 2.2% salt diet, 4 weeks treatment, 500 pmol/kg/min orally, compared to controls (FIG. 17); for Histological sections from the kidneys (micrographs): rats on 2.2% salt diet treated four weeks with 500 pmol/kg/min, control has extensive fibrosis (FIG. 21)
Source text: as §1, §2, §3

- melting point: 219 to 222 °C
Structure (SMILES): NC(=O)CCc1cc(-c2ccccc2)ccc1-c1ccc2c(c1)NC(=O)C2 [T25, 3-(4-(2-Oxoindolin-6-yl)-[1,1′-biphenyl]-3-yl)propanamide]

- melting point: 232 to 233 °C
Structure (SMILES): NC(=O)CCc1cc(-c2ccccc2)ccc1-c1cc(O)cc(O)c1 [T20, 3-(3,5-Dihydroxy-[1,1′:4′,1″-terphenyl]-2′-yl)propanamide]
- Mean systolic blood pressure [1]: decreased blood pressure compared to controls
- Fibrosis in the heart [2]: decreased compared to controls
- Histological sections from the hearts (micrographs) [2]: no discrete areas of fibrosis are present
- Fibrosis in the kidney [3]: decreased compared to controls
- Histological sections from the kidneys (micrographs) [3]: fibrosis has been reduced to thin bands incompletely surrounding some but not all tubules

Structure (SMILES): CS(=O)(=O)Nc1cccc(-c2ccc(-c3ccccc3)cc2CCC(N)=O)c1 [T1, 3-(3-(Methylsulfonamido)-[1,1′:4′,1″-terphenyl]-2′-yl)propanamide]
- Mean diastolic blood pressure [1]: decreased compared to controls
- Mean systolic blood pressure [1]: decreased blood pressure compared to controls
- Fibrosis in the heart [2]: decreased compared to controls
- Histological sections from the hearts (micrographs) [2]: no discrete areas of fibrosis are present
- Fibrosis in the kidney [3]: decreased compared to controls
- Histological sections from the kidneys (micrographs) [3]: fibrosis has been reduced to thin bands incompletely surrounding some but not all tubules

Structure (SMILES): NC(=O)CCc1cc(-c2ccccc2)ccc1-c1cccc(NC=O)c1 [T2, 3-(3-Formamido-[1,1′:4′,1″-terphenyl]-2′-yl)propanamide]
- Mean diastolic blood pressure [1]: decreased compared to controls
- Mean systolic blood pressure [1]: decreased blood pressure compared to controls
- Fibrosis in the heart [2]: decreased compared to controls
- Histological sections from the hearts (micrographs) [2]: no discrete areas of fibrosis are present
- Fibrosis in the kidney [3]: decreased compared to controls
- Histological sections from the kidneys (micrographs) [3]: fibrosis has been reduced to thin bands incompletely surrounding some but not all tubules

- melting point: 248 to 249 °C
Structure (SMILES): NC(=O)CCc1cc(-c2ccccc2)ccc1-c1ccnc(N)c1 [T48, 3-(4-(2-Aminopyridin-4-yl)-[1, 1′-biphenyl]-3-yl)propanamide]
- Mean systolic blood pressure [1]: decreased blood pressure compared to controls
- Fibrosis in the heart [2]: decreased compared to controls
- Fibrosis in the kidney [3]: decreased compared to controls

- melting point: 250 to 251 °C
Structure (SMILES): NC(=O)CCc1cc(-c2ccccc2)ccc1-c1ccc2[nH]c(=O)[nH]c2c1 [T31, 3-(4-(2-Oxo-2,3-dihydro-1H-benzo[d]imidazol-5-yl)-[1,1′-biphenyl]-3-yl)propanamide]
- Mean diastolic blood pressure [1]: decreased compared to controls
- Mean systolic blood pressure [1]: decreased blood pressure compared to controls
- Fibrosis in the heart [2]: decreased compared to controls
- Histological sections from the hearts (micrographs) [2]: no discrete areas of fibrosis are present
- Fibrosis in the kidney [3]: decreased compared to controls
- Histological sections from the kidneys (micrographs) [3]: fibrosis has been reduced to thin bands incompletely surrounding some but not all tubules

Structure (SMILES): CS(=O)(=O)Nc1cc(NS(C)(=O)=O)cc(-c2ccc(-c3ccccc3)cc2CCC(N)=O)c1 [T70, 3-(3,5-Di(methylsulfonamido)-[1,1′:4′,1″-terphenyl]-2′-yl)propanamide]
- Mean diastolic blood pressure [1]: decreased compared to controls
- Mean systolic blood pressure [1]: decreased blood pressure compared to controls
- Fibrosis in the heart [2]: decreased compared to controls
- Fibrosis in the kidney [3]: decreased compared to controls
